Source: patent publication US12552811B2, “Immunosuppressant, and preparation method therefor and use thereof” (Abbisko Therapeutics Co., Ltd., priority 2020, dated 2026)

Assays:
[1] = Pharmacokinetic assay in mice; type: in vivo; conditions: male, mouse; ICR mice, PO 10 mg/kg, plasma
Protocol: III. Pharmacokinetic Assay in Mice
The purpose of this study was to study the pharmacokinetic behaviors of some compounds of the present invention, and administration routes were: per oral administration (PO) to ICR mice at a dose of 10 mg/kg.
The compounds used in this test came from the compounds of the specific examples of the present invention.
ICR mice, male, N=3, with the original source of Shanghai Sippr-BK Laboratory Animal Co. Ltd.
2.3 Preparation and Administration of Drug
The compounds were weighed, and dissolved in a solvent of 0.5% SDS+0.5% CMCNa. The mixture solutions were mixed well by shaking and ultrasonic treatment to obtain colorless clear solutions. The solutions were orally administered to nine mice after an overnight fast. The dosage of administration was 10 mg/kg.
• 1) With about 90 μL/time point, blood was drawn from the submaxillary vein, and heparin sodium was added for anticoagulation. The blood samples were placed onto the ice, and were centrifuged (centrifugation conditions: 8000 r/min, 6 min, 2-8° C.) within 1 hr to obtain plasmas. • 2) The time points for blood sampling were at 0 hr, 0.25 hr, 0.5 hr, 1 hr, 2 hrs, 4 hrs, 6 hrs, 8 hrs and 24 hrs after administration. The samples were stored in a refrigerator at −20° C. • 3) 40 μL of plasma sample was added to 160 μL of cold acetonitrile containing an internal standard, and the mixture solution was vortexed for 3 min and centrifuged at 11,000 r/min for 5 min. • 4) 100 μL of supernate was taken and added to 100 μL of water, and 5 μL of the sample was taken and analyzed by LC/MS/MS.
The compounds from some representative examples of the present invention were administered and tested according to the above method, and their prototype compounds were detected.

[2] = Jurkat reporter gene cellular assay; type: cell-based; conditions: Homo sapiens; Jurkat/NF-κB-luc/PD1 + Raji-PD-L1 coculture, OKT3 1 μg/mL, 6 hrs, activation fold; read-out: Cell Activity EC50
Protocol: The effect of compounds of the examples of the present invention and positive compounds on the interaction between PD-1 and PD-L1 expressed on cell surfaces, and the related influence on T cell functions, were determined by a Jurkat reporter gene cellular assay.
Briefly, the reporter gene plasmid of NF-κB-luc and the plasmid of human PD-1 were transfected into Jurkat cells to establish a stably transfected cell line capable of stably expressing both PD-1 and NF-κB-Luc reporter genes; the expression level of PD-1 on the cell surface was confirmed by flow cytometry; and the expression of the reporter gene was confirmed via the response of the reporter gene stimulated by OKT-3 and Raiji cells.
In addition, the plasmid of human PD-L1 was transfected into Raji cells to obtain a cell line capable of stably expressing PD-L1. Jurkat/NF-κB-luc/PD1 cells and Raji-PD-L1 cells were then cocultured and stimulated with OKT-3. On this basis, the compounds were added, and the enhancement of the signal pathway of T cell activation by the inhibitory effect of the compounds on the interaction between PD-1 and PD-L1 was evaluated by readings of reporter gene responses. The specific experimental process was as follows: • 1) 30 μL of compound or antibody solution was added to each well of a white 96-well plate (coming, 3610) at different diluted concentrations, and 10 μL of OKT3 (Biolegend, 317326) was then added (the final concentration of OKT3: 1 μg/mL); • 2) 20 μL of Raji-PD-L1 cell suspension was added to each well with 5*10^4 cells for each well, and was incubated in an incubator for 20 min: • 3) 20 μL of Jurkat/NF-κb-luc/PD-1 cell suspension was added to each well with 5*10^4 cells for each well, and well mixed, and 6 hrs later, Bright-glo (Promega, E2620) was applied and plates were read on Envision; • 4) The reading of each well treated with the compound was compared with the reading of each well treated with DMSO to obtain the activation fold of the compound; • 5) EC50 values of compounds and positive compounds of the examples of the present invention were determined by non-linear regression analysis of activation folds at different compound concentrations.

[3] = target: interaction between PD-1 and PD-L1 (Homo sapiens (Human), UniProt Q9NZQ7); experiment: PD1-PDL1 HTRF binding activity test; conditions: Cisbio PD-1/PD-L1 binding assay kit
Protocol: I. PD1-PDL1 HTRF Binding Activity Test
The effect of compounds of the examples of the present invention on the interaction between PD-1 and PD-L1 was determined by the PD-1/PD-L1 binding assay kit from Cisbio (#64ICP01PEG or 64ICP01PEH). The detailed experimental process was as follows: • 1) Pre-diluted compound solution, 4 μL of Tag1-PD-L1 and 4 μL of Tag2-PD1 were added to each well of a 384-well plate: • 2) After the mixture was incubated at room temperature for 15 min, 5 μL of anti-Tag1-Eu3+ antibody and 5 μL of anti-Tag2-XL665 antibody were then added; • 3) After incubated for 2 hrs at room temperature or overnight at 4° C., plates were read on Envision of Pelkin Elmer; and readings at 665 nm and 620 nm were recorded, and the ratio of the two readings was taken as a reading for each well; • 4) The reading of each well after compound treatment was compared with the reading of DMSO treated wells to obtain the percent inhibition of the compound; • 5) IC50 values of compounds and positive compounds of the examples of the present invention were determined by non-linear regression analysis of percent inhibition at different compound concentrations. II. Jurkat Reporter Gene Cellular Assay

interaction between PD-1 and PD-L1, sequence (Q9NZQ7 19-238): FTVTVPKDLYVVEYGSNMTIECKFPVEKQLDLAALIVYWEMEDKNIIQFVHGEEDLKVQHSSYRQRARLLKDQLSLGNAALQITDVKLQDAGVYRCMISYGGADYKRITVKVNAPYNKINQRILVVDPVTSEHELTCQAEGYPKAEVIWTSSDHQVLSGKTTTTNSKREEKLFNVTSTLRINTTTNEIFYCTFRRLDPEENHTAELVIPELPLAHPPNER

| AUC(0-t) [1] [ng·h/mL] | Cmax [1] [ng/mL] | MRT [1] [h] | Tmax [1] [h] | half-life [1] [h] | EC50 [2] [nM] | IC50 [3] [nM] | SMILES |
| --- | --- | --- | --- | --- | --- | --- | --- |
| 18400 | 2850 | 4.9 | 0.5 | 3.6 | 53.8 | 0.73 | CC(C)N1CCc2cc(C(=O)Nc3cccc(-c4cccc(NC(=O)c5nc6c(n5C)CCN(CCC57CCC(C(=O)O)(CC5)C7)C6)c4Cl)c3Cl)ncc2C1 [Example 1, 4-(2-(2-((2,2′-dichloro-3′-(7-isopropyl-5,6,7,8-tetrahydro-2,7-naphthyridine-3-carboxamido)-[1,1′-biphenyl]-3-yl)carbamoyl)-1-methyl-1,4,6,7-tetrahydro-5H-imidazo[4,5-c]pyridin-5-yl)ethyl)bicyclo[2.2.1]heptane-1-carboxylic acid] |
| 1820 | 2320 | 1.8 | 0.083 | 4 | 50 | 0.178 | CN1CCc2cc(C(=O)Nc3cccc(-c4cccc(NC(=O)c5nc6c(n5C)CCN(CCC57CCC(C(=O)O)(CC5)C7)C6)c4Cl)c3Cl)ncc2C1 [Example 2, 4-(2-(2-((2,2′-dichloro-3′-(7-methyl-5,6,7,8-tetrahydro-2,7-naphthyridine-3-carboxamido)-[1,1′-biphenyl]-3-yl)carbamoyl)-1-methyl-1,4,6,7-tetrahydro-5H-imidazo[4,5-c]pyridin-5-yl)ethyl)bicyclo[2.2.1] heptane-1-carboxylic acid] |
| – | – | – | – | – | 86.3 | 0.358 | CC(C)N1CCc2cc(/C(F)=C/c3cccc(-c4cccc(NC(=O)c5nc6c(n5C)CCN(CCC57CCC(C(=O)O)(CC5)C7)C6)c4Cl)c3Cl)ncc2C1 [Example 25, (Z)-4-(2-(2-((2,2′-dichloro-3′-(2-fluoro-2-(7-isopropyl-5,6,7,8-tetrahydro-2,7-naphthyridin-3-yl)vinyl)-[1,1′-biphenyl]-3-yl)carbamoyl)-1-methyl-1,4,6,7-tetrahydro-5H-imidazo[4,5-c]pyridin-5-yl)ethyl) bicyclo[2.2.1]heptane-1-carboxylic acid] |
| 13900 | 1630 | 5.7 | 1 | 3.8 | 53.5 | 0.73 | CC(C)N1CCc2cc(C(=O)Nc3cccc(-c4cccc(NC(=O)c5nc6c(n5C)CCN(CCC57CCC(C(=O)O)(CC5)CC7)C6)c4Cl)c3Cl)ncc2C1 [Example 58, 4-(2-(2-((2,2′-dichloro-3′-(7-isopropyl-5,6,7,8-tetrahydro-2,7-naphthyridine-3-carboxamido)-[1,1′-biphenyl]-3-yl)carbamoyl)-1-methyl-1,4,6,7-tetrahydro-5H-imidazo[4,5-c]pyridin-5-yl)ethyl)bicyclo [2.2.2]octane-1-carboxylic acid] |
| 2300 | 616 | 2.4 | 0.5 | 1.2 | 33.8 | 0.904 | CC(C)N1CCc2cc(C(=O)Nc3cccc(-c4cccc(NC(=O)c5nc6c(n5C)CCN(CCC57C8C9C5C5C7C8C95C(=O)O)C6)c4Cl)c3Cl)ncc2C1 (stereo not shown) [Example 59, 4-(2-(2-((2,2′-dichloro-3′-(7-isopropyl-5,6,7,8-tetrahydro-2,7-naphthyridine-3-carboxamido)-[1,1′-biphenyl]-3-yl)carbamoyl)-1-methyl-1,4,6,7-tetrahydro-5H-imidazo[4,5-c]pyridin-5-yl)ethyl)cubane-1-carboxylic acid] |
| 4250 | 2420 | 2 | 0.5 | 1.6 | 29.4 | 0.253 | CC(C)N1CCc2cc(C(=O)Nc3cccc(-c4cccc(NC(=O)c5nc6c(n5C)CCN(CCC57CC(C(=O)O)(C5)C7)C6)c4Cl)c3Cl)ncc2C1 [Example 60, 3-(2-(2-((2,2′-dichloro-3′-(7-isopropyl-5,6,7,8-tetrahydro-2,7-naphthyridine-3-carboxamido)-[1,1′-biphenyl]-3-yl)carbamoyl)-1-methyl-1,4,6,7-tetrahydro-5H-imidazo[4,5-c]pyridin-5-yl)ethyl)bicyclo [1.1.1]pentane-1-carboxylic acid] |
